Source: patent US11331299B2, “Medicinal use of serrulatane diterpenes” (The University of Sydney, priority 2016, dated 2022)
Read-outs that look alike come from different tables or passages of the source.

Test system: 280 human cancer cell lines
Experiment: OncoPanel cell proliferation assay (10-day)
Type: cell-based
Conditions: Homo sapiens; for IC50: read-out: Cell Count IC50; for EC50: read-out: Cell Count EC50; for GI50: read-out: Cell Count GI50
[1] = Caov-3, CaOV3, Female GU - Ovary
[2] = ChaGo-K-1, ChaGoK1, Lung - NSCLC
[3] = D341 Med, CNS - Medulloblastoma
[4] = Detroit 562, Detroit 562, Head and Neck
[5] = DoTc2-4510, DoTc2 4510, Lymphoma
[6] = G292, G-292, clone A141B1, Soft Tissue - Osteosarcoma
[7] = HEL 92.1.7, HEL-92-1-7, Leukemia
[8] = HOS, Soft Tissue - Osteosarcoma
[9] = HT-1080, HT-1080, Soft Tissue - Sarcoma
[10] = HUH-6-clone5, HUH-6 Clone 5, Liver
[11] = Hs 821.T, Soft Tissue - Sarcoma
[12] = Hs 888.Sk, Soft Tissue - Osteosarcoma

CC(C)=CCC[C@H](CO)[C@@H]1CC[C@@H](C)c2c1cc(C)c(O)c2O [Compound 1, 7,8,18-trihydroxyserrulat-14-ene]
IC50 (Calu-6, Calu6, Lung - NSCLC): 9240 nM
EC50 [1]: 1910 nM
GI50 [1]: 1850 nM
IC50 [1]: 1920 nM
EC50 (Capan-2, Capan-2, Pancreas): 1330 nM
GI50 (Capan-2, Capan-2, Pancreas): 1320 nM
IC50 (Capan-2, Capan-2, Pancreas): 1330 nM
EC50 [2]: 1530 nM
GI50 [2]: 1530 nM
IC50 [2]: 1540 nM
EC50 [3]: 9090 nM
GI50 [3]: 9370 nM
IC50 [3]: 9460 nM
EC50 (DB, Lymphoma): 2100 nM
GI50 (DB, Lymphoma): 2090 nM
IC50 (DB, Lymphoma): 2100 nM
EC50 (DBTRG-05MG, CNS - Glioma): 2650 nM
GI50 (DBTRG-05MG, CNS - Glioma): 2640 nM
IC50 (DBTRG-05MG, CNS - Glioma): 2660 nM
EC50 (DK-MG, CNS - Glioma): 6160 nM
GI50 (DK-MG, CNS - Glioma): 6120 nM
IC50 (DK-MG, CNS - Glioma): 6410 nM
EC50 (DLD-1, DLD-1, Colon): 2960 nM
GI50 (DLD-1, DLD-1, Colon): 2960 nM
IC50 (DLD-1, DLD-1, Colon): 2960 nM
EC50 (DMS-53, DMS53, Lung - SCLC): 810 nM
GI50 (DMS-53, DMS53, Lung - SCLC): 770 nM
IC50 (DMS-53, DMS53, Lung - SCLC): 810 nM
EC50 (DMS-114, DMS114, Lung - SCLC): 2770 nM
GI50 (DMS-114, DMS114, Lung - SCLC): 2570 nM
IC50 (DMS-114, DMS114, Lung - SCLC): 2770 nM
EC50 (DOHH-2, DOHH-2, Lymphoma): 1410 nM
GI50 (DOHH-2, DOHH-2, Lymphoma): 1410 nM
IC50 (DOHH-2, DOHH-2, Lymphoma): 1410 nM
EC50 (DU-145, DU145, Prostate): 2800 nM
GI50 (DU-145, DU145, Prostate): 2780 nM
IC50 (DU-145, DU145, Prostate): 2800 nM
EC50 (Daoy, CNS - Medulloblastoma): 1060 nM
GI50 (Daoy, CNS - Medulloblastoma): 1060 nM
IC50 (Daoy, CNS - Medulloblastoma): 1060 nM
EC50 (Daudi, Lymphoma): 1840 nM
GI50 (Daudi, Lymphoma): 1840 nM
IC50 (Daudi, Lymphoma): 1840 nM
EC50 [4]: 1960 nM
GI50 [4]: 1960 nM
IC50 [4]: 1970 nM
EC50 [5]: 1030 nM
GI50 [5]: 1010 nM
IC50 [5]: 1030 nM
EC50 (EB2, Lymphoma): 6470 nM
GI50 (EB2, Lymphoma): 6450 nM
IC50 (EB2, Lymphoma): 6490 nM
EC50 (EB-3, Lymphoma): 3560 nM
GI50 (EB-3, Lymphoma): 3560 nM
IC50 (EB-3, Lymphoma): 3560 nM
EC50 (EFM-19, EFM-19, Breast): 1610 nM
GI50 (EFM-19, EFM-19, Breast): 1540 nM
IC50 (EFM-19, EFM-19, Breast): 1610 nM
EC50 (EM-2, Leukemia): 2390 nM
GI50 (EM-2, Leukemia): 2370 nM
IC50 (EM-2, Leukemia): 2390 nM
EC50 (FaDu, Head and Neck): 870 nM
GI50 (FaDu, Head and Neck): 870 nM
IC50 (FaDu, Head and Neck): 870 nM
EC50 [6]: 4550 nM
GI50 [6]: 4410 nM
IC50 [6]: 4570 nM
EC50 (G-361, G-361, Skin (Melanoma)): 1790 nM
GI50 (G-361, G-361, Skin (Melanoma)): 1770 nM
IC50 (G-361, G-361, Skin (Melanoma)): 1790 nM
EC50 (G-401, G-401, Kidney): 4000 nM
GI50 (G-401, G-401, Kidney): 3990 nM
IC50 (G-401, G-401, Kidney): 4000 nM
EC50 (GA-10, GA-10, Lymphoma): 1930 nM
GI50 (GA-10, GA-10, Lymphoma): 1940 nM
IC50 (GA-10, GA-10, Lymphoma): 1940 nM
EC50 (H4, CNS - Glioma): 2770 nM
GI50 (H4, CNS - Glioma): 2770 nM
IC50 (H4, CNS - Glioma): 2770 nM
EC50 (HCT-15, HCT-15, Colon): 1840 nM
GI50 (HCT-15, HCT-15, Colon): 1830 nM
IC50 (HCT-15, HCT-15, Colon): 1840 nM
EC50 (HCT-116, HCT-116, Colon): 1750 nM
GI50 (HCT-116, HCT-116, Colon): 1750 nM
IC50 (HCT-116, HCT-116, Colon): 1750 nM
EC50 (HEC-1-A, Female GU - Uterus): 2570 nM
GI50 (HEC-1-A, Female GU - Uterus): 2560 nM
IC50 (HEC-1-A, Female GU - Uterus): 2570 nM
EC50 [7]: 13900 nM
GI50 [7]: 13900 nM
IC50 [7]: 13900 nM
EC50 (HLE, Liver): 4620 nM
GI50 (HLE, Liver): 4590 nM
IC50 (HLE, Liver): 4630 nM
EC50 (HLF, Liver): 4470 nM
GI50 (HLF, Liver): 4450 nM
IC50 (HLF, Liver): 4480 nM
EC50 (HMCB, Skin (Melanoma)): 1370 nM
GI50 (HMCB, Skin (Melanoma)): 1360 nM
IC50 (HMCB, Skin (Melanoma)): 1370 nM
EC50 [8]: 960 nM
GI50 [8]: 960 nM
IC50 [8]: 960 nM
EC50 (HPAF-II, Pancreas): 1380 nM
GI50 (HPAF-II, Pancreas): 1370 nM
IC50 (HPAF-II, Pancreas): 1380 nM
EC50 (HT1197, HT-1197, Bladder): 2310 nM
GI50 (HT1197, HT-1197, Bladder): 2280 nM
IC50 (HT1197, HT-1197, Bladder): 2340 nM
EC50 (HT, Lymphoma): 1520 nM
GI50 (HT, Lymphoma): 1510 nM
IC50 (HT, Lymphoma): 1530 nM
EC50 (HT-3, Female GU - Cervix): 3880 nM
GI50 (HT-3, Female GU - Cervix): 3840 nM
IC50 (HT-3, Female GU - Cervix): 3890 nM
EC50 (HT-29, HT-29, Colon): 4010 nM
GI50 (HT-29, HT-29, Colon): 4000 nM
IC50 (HT-29, HT-29, Colon): 4010 nM
EC50 [9]: 960 nM
GI50 [9]: 960 nM
IC50 [9]: 960 nM
EC50 (HT-1376, HT1376, Bladder): 1450 nM
GI50 (HT-1376, HT1376, Bladder): 1430 nM
IC50 (HT-1376, HT1376, Bladder): 1460 nM
EC50 [10]: 1520 nM
GI50 [10]: 1510 nM
IC50 [10]: 1520 nM
EC50 (HeLa, Female GU - Cervix): 2990 nM
GI50 (HeLa, Female GU - Cervix): 2980 nM
IC50 (HeLa, Female GU - Cervix): 2990 nM
EC50 (HepG2, HepG2, Liver): 820 nM
GI50 (HepG2, HepG2, Liver): 810 nM
IC50 (HepG2, HepG2, Liver): 820 nM
EC50 (Hs 229.T, Lung - NSCLC): 2880 nM
GI50 (Hs 229.T, Lung - NSCLC): 2890 nM
IC50 (Hs 229.T, Lung - NSCLC): 2940 nM
EC50 (Hs 294T, Skin (Melanoma)): 2640 nM
GI50 (Hs 294T, Skin (Melanoma)): 2590 nM
IC50 (Hs 294T, Skin (Melanoma)): 2640 nM
EC50 (Hs 445, Hs 445, Lymphoma): 1300 nM
GI50 (Hs 445, Hs 445, Lymphoma): 1310 nM
IC50 (Hs 445, Hs 445, Lymphoma): 1320 nM
EC50 (Hs 611.T, Lymphoma): 2920 nM
GI50 (Hs 611.T, Lymphoma): 2910 nM
IC50 (Hs 611.T, Lymphoma): 2940 nM
EC50 (Hs 683, Hs 683, CNS - Glioma): 4900 nM
GI50 (Hs 683, Hs 683, CNS - Glioma): 4760 nM
IC50 (Hs 683, Hs 683, CNS - Glioma): 4910 nM
EC50 (Hs 688(A).T, Skin (Melanoma)): 1330 nM
GI50 (Hs 688(A).T, Skin (Melanoma)): 1270 nM
IC50 (Hs 688(A).T, Skin (Melanoma)): 1440 nM
EC50 (Hs746T, HS 746T, Stomach): 5580 nM
GI50 (Hs746T, HS 746T, Stomach): 4640 nM
IC50 (Hs746T, HS 746T, Stomach): 5740 nM
EC50 (Hs766T, Hs 766T, Pancreas): 1610 nM
GI50 (Hs766T, Hs 766T, Pancreas): 1540 nM
IC50 (Hs766T, Hs 766T, Pancreas): 1610 nM
EC50 [11]: 4220 nM
GI50 [11]: 1800 nM
IC50 [11]: 4220 nM
EC50 [12]: 2200 nM
GI50 [12]: 2050 nM
IC50 [12]: 2380 nM
EC50 (Hs 934.T, Skin (Melanoma)): 2530 nM
GI50 (Hs 934.T, Skin (Melanoma)): 2340 nM
IC50 (Hs 934.T, Skin (Melanoma)): 3270 nM
EC50 (Hs 936.T(C1), Skin (Melanoma)): 2000 nM
GI50 (Hs 936.T(C1), Skin (Melanoma)): 1970 nM
IC50 (Hs 936.T(C1), Skin (Melanoma)): 2000 nM
EC50 (Hs-578T, Hs 578T, Breast): 4740 nM
GI50 (Hs-578T, Hs 578T, Breast): 4680 nM
IC50 (Hs-578T, Hs 578T, Breast): 4760 nM
EC50 (HuCCT-1, HuCCT1, Liver): 2480 nM
GI50 (HuCCT-1, HuCCT1, Liver): 2480 nM
IC50 (HuCCT-1, HuCCT1, Liver): 2480 nM
EC50 (HuP-T4, HuP-T4, Pancreas): 4520 nM
GI50 (HuP-T4, HuP-T4, Pancreas): 4530 nM
IC50 (HuP-T4, HuP-T4, Pancreas): 4540 nM
EC50 (J82, Bladder): 1060 nM
GI50 (J82, Bladder): 1050 nM
IC50 (J82, Bladder): 1060 nM
EC50 (JAR, Placenta): 12200 nM
GI50 (JAR, Placenta): 12200 nM
IC50 (JAR, Placenta): 12200 nM
EC50 (JEG-3, JEG-3, Placenta): 4330 nM
GI50 (JEG-3, JEG-3, Placenta): 4320 nM
IC50 (JEG-3, JEG-3, Placenta): 4330 nM
EC50 (JIYOYE, Lymphoma): 5880 nM
GI50 (JIYOYE, Lymphoma): 5870 nM
IC50 (JIYOYE, Lymphoma): 5880 nM
EC50 (JeKo-1, JeKo-1, Lymphoma): 5230 nM
GI50 (JeKo-1, JeKo-1, Lymphoma): 5210 nM
IC50 (JeKo-1, JeKo-1, Lymphoma): 5230 nM
EC50 (Jurkat, Leukemia): 2250 nM
GI50 (Jurkat, Leukemia): 2240 nM
IC50 (Jurkat, Leukemia): 2250 nM
EC50 (K562, K562, Leukemia): 4600 nM
GI50 (K562, K562, Leukemia): 4580 nM
IC50 (K562, K562, Leukemia): 4600 nM
EC50 (KATO III, Stomach): 3280 nM
GI50 (KATO III, Stomach): 3270 nM
IC50 (KATO III, Stomach): 3280 nM
EC50 (KHOS-240S, Soft Tissue - Osteosarcoma): 950 nM
